By inhibition is commonly meant the relative decrease from the control value, in per cent.

A value given as a limit tells only on which side of the number the result lay.

Results on two compounds are retold here after PMC9030254, “Target Hopping from Protein Kinases to PXR: Identification of Small-Molecule Protein Kinase Inhibitors as Selective Modulators of Pregnane X Receptor from TüKIC Library” (Cells, 2022).

Holding throughout (assay): Kinase profiling
What all share (format): biochemical

For one assay, the target named is T1, CAMK2D (Homo sapiens, UniProt Q13557).
T1 construct: purchased ProQinase (Freiburg, Germany)
As to the method:
(§1) The analysis was performed by ProQinase (Freiburg, Germany).

For the next assay, the target named is T2, EIF2AK3 (Homo sapiens, UniProt Q9NZJ5).
T2 construct: purchased ProQinase (Freiburg, Germany)
T2 sequence (Q9NZJ5 30-1116): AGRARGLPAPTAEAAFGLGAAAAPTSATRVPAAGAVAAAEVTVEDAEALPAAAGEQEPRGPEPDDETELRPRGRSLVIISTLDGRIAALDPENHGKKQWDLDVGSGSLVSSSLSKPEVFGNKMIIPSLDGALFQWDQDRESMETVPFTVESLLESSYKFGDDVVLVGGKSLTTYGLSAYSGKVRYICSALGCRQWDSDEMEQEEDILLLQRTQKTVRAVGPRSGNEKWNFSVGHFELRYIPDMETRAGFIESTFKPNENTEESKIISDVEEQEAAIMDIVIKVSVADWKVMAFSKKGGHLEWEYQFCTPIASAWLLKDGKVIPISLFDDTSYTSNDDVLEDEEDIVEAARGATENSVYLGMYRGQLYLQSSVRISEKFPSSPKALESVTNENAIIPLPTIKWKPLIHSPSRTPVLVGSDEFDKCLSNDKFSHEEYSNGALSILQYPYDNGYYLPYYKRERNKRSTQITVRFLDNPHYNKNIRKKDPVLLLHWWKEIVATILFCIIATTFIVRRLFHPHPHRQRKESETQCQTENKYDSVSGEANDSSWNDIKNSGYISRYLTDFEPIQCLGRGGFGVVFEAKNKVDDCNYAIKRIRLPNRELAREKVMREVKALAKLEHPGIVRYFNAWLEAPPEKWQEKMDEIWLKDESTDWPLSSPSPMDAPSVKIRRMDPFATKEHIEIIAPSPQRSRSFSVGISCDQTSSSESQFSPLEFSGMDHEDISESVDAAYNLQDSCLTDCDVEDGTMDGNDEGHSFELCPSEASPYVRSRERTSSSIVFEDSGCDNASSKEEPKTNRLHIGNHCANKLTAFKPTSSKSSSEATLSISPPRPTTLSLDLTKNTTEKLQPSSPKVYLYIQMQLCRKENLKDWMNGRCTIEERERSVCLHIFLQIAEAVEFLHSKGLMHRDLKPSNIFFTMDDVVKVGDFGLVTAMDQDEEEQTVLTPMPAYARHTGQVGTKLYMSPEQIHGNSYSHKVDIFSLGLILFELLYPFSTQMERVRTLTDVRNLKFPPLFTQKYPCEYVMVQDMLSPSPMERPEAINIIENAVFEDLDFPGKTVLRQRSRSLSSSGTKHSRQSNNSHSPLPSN
As to the method:
as §1

The next assay deals with T3, MARK2 (Homo sapiens, UniProt Q7KZI7).
T3 construct: purchased ProQinase (Freiburg, Germany)
As to the method: as §1

The target of a further assay is T4, BUB1B (Homo sapiens, UniProt O60566).
T4 construct: purchased ProQinase (Freiburg, Germany)
As to the method:
as §1

The target of the next assay is T5, TYK2 (Homo sapiens, UniProt P29597).
T5 construct: purchased ProQinase (Freiburg, Germany)
As to the method: as §1

For a further assay, the target named is T6, HIPK1 (Homo sapiens, UniProt Q86Z02).
T6 construct: purchased ProQinase (Freiburg, Germany)
As to the method:
as §1

Another assay has as its target T7, p38alpha (Homo sapiens, UniProt Q16539).
T7 construct: purchased ProQinase (Freiburg, Germany)
The method, then:
as §1

The next assay deals with T8, ERK7 (Homo sapiens, UniProt Q8TD08).
T8 construct: purchased ProQinase (Freiburg, Germany)
T8 sequence (Q8TD08 1-544): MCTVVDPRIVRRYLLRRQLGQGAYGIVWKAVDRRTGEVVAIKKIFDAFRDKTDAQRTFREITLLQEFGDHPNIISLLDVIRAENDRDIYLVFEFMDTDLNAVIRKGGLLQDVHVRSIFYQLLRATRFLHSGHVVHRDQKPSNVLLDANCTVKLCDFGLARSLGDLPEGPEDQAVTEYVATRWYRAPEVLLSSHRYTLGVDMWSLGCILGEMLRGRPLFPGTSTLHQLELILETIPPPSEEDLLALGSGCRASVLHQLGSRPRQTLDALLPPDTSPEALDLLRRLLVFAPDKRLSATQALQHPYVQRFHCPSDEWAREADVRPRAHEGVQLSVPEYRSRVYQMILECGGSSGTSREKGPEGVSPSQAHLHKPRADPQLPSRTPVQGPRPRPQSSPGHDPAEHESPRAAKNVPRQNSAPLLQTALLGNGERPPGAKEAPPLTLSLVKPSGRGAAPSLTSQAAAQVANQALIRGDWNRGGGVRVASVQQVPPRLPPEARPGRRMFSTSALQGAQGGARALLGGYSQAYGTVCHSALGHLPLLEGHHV
As to the method: as §1

A further assay addresses T9, HIPK2 (Homo sapiens, UniProt Q9H2X6).
T9 construct: purchased ProQinase (Freiburg, Germany)
The method, then:
as §1

T4 sequence (O60566 whole entry): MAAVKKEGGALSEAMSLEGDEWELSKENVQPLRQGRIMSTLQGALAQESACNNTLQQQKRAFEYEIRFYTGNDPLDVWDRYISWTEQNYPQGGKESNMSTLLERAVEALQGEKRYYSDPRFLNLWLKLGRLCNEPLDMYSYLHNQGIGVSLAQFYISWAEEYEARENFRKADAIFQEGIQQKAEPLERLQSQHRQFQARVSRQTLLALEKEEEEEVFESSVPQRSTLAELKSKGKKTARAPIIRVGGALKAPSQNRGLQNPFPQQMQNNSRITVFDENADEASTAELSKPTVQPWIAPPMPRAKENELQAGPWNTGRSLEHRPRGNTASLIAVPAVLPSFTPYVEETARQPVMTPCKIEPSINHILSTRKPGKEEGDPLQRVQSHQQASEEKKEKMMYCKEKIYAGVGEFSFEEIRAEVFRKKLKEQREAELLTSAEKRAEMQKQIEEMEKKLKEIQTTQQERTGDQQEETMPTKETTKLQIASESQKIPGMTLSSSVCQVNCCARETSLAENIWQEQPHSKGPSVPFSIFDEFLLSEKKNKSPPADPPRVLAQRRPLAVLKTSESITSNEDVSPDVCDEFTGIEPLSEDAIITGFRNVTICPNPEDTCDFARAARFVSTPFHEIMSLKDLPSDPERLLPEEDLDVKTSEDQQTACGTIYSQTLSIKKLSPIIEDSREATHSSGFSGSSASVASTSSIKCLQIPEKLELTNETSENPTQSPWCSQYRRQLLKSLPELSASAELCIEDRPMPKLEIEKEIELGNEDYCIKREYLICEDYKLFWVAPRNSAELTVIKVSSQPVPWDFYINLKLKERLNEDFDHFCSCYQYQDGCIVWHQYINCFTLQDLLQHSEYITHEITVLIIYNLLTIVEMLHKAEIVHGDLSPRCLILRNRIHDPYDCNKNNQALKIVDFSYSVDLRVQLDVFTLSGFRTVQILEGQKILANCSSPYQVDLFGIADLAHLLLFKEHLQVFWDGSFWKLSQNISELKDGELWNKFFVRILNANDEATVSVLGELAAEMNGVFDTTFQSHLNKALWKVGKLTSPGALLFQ
T1 sequence (Q13557 whole entry): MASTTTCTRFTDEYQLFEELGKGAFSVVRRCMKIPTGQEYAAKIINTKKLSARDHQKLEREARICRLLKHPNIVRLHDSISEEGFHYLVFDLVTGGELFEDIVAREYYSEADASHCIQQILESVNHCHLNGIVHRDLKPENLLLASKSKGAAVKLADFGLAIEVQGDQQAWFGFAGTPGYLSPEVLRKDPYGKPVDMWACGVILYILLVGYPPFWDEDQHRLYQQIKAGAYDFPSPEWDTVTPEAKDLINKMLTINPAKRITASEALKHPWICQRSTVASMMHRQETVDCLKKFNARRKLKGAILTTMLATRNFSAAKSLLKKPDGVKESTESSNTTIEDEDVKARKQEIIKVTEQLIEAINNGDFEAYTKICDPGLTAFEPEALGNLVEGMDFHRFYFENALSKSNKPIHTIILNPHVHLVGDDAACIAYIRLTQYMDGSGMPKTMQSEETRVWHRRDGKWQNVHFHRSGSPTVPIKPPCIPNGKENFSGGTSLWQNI
T7 sequence (Q16539 whole entry): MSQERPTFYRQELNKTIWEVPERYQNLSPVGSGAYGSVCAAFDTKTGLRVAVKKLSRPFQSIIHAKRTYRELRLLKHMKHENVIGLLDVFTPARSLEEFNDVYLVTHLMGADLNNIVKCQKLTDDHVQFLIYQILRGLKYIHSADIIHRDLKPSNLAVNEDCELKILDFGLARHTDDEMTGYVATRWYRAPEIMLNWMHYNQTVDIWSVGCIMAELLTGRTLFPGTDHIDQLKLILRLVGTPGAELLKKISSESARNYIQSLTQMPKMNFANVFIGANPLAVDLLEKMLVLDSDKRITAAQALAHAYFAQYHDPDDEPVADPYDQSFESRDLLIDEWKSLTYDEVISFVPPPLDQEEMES
T6 sequence (Q86Z02 whole entry): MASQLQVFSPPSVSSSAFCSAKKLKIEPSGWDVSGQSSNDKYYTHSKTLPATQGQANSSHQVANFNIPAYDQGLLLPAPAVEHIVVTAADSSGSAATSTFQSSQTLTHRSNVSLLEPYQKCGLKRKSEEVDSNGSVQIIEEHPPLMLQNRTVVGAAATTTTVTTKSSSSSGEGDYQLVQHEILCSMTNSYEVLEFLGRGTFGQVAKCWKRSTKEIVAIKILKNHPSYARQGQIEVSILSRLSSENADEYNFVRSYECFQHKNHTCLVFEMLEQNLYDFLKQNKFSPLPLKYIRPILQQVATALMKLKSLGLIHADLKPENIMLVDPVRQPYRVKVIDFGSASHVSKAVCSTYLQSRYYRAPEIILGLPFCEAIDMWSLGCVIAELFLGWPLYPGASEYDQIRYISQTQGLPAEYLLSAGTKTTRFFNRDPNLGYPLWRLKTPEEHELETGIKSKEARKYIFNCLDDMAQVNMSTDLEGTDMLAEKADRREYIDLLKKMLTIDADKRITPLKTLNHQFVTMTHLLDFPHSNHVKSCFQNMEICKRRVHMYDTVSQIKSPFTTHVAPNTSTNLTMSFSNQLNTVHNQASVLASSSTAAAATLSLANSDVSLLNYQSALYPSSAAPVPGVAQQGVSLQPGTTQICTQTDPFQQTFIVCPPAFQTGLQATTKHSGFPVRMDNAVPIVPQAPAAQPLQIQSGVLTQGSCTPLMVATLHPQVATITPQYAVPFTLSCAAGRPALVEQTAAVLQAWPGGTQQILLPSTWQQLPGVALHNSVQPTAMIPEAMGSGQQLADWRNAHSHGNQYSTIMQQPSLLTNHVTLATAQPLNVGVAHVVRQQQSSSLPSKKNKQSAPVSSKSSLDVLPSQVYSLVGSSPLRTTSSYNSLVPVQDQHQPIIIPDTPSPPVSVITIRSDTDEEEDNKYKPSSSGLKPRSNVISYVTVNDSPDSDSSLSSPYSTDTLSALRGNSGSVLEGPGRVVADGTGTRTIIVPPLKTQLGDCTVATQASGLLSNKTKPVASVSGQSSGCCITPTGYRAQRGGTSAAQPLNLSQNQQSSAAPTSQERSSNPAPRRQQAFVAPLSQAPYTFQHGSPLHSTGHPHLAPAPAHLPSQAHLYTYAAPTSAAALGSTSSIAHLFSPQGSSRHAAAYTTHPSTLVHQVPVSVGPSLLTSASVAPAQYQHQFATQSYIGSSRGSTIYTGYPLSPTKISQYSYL
T5 sequence (P29597 whole entry): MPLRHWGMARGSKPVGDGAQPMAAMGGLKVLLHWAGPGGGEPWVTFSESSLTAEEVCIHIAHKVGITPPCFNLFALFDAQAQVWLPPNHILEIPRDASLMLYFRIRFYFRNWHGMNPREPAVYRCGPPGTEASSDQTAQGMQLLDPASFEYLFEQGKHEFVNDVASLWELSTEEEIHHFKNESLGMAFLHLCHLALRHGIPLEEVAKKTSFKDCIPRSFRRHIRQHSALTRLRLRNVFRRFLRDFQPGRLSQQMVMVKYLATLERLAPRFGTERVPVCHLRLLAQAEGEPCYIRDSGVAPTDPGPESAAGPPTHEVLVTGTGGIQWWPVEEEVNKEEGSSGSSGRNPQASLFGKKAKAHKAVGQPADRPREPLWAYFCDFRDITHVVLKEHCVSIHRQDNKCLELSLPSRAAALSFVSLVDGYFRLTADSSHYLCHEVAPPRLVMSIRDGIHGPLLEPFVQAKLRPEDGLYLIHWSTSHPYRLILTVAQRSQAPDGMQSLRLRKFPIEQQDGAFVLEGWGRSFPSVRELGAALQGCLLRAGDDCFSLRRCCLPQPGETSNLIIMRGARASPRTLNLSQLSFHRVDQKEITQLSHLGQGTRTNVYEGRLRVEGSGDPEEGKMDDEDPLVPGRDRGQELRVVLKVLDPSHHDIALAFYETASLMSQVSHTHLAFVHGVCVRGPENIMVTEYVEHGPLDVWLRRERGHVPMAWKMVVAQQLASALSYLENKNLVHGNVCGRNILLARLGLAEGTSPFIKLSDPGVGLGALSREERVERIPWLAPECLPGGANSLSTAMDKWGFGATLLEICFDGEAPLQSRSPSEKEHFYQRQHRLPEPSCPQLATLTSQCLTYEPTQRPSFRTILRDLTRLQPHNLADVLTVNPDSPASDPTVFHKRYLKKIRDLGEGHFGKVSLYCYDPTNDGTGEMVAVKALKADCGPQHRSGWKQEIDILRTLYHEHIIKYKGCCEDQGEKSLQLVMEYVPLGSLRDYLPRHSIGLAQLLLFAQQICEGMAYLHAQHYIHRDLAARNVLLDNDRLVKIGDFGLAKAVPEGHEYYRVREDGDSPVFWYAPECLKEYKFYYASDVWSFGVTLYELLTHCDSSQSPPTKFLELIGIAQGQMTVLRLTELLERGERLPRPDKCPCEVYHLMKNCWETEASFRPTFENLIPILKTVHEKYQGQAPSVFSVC
T3 sequence (Q7KZI7 whole entry): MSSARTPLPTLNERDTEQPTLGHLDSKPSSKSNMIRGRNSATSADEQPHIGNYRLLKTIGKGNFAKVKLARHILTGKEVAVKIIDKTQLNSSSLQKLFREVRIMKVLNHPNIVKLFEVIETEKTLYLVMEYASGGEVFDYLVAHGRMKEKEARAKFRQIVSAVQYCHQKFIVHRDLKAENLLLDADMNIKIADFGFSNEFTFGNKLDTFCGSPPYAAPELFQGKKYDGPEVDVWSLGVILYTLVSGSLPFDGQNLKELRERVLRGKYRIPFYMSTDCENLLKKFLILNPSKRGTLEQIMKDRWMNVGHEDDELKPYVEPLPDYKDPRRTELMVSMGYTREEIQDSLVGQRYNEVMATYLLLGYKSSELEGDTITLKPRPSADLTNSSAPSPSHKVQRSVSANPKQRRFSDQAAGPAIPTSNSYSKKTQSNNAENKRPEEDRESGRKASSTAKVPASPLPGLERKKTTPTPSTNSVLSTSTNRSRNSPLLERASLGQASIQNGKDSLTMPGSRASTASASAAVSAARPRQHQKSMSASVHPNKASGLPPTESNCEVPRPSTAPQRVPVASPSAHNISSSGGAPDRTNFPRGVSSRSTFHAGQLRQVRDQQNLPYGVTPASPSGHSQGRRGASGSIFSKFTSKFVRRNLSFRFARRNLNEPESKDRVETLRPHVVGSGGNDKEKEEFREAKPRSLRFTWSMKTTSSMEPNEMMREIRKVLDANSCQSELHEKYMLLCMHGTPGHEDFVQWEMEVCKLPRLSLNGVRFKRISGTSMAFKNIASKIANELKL

Consider `O=C(Nc1ccc(F)c(Nc2ccc3c(c2)CCCCC3=O)c1)c1cccc(F)c1` [Compound 109], for which the Residual activity on CAMK2D (1.0E-05 M) was 88 % of control; on CAMK2D (1.0E-06 M), 92 % of control; at EIF2AK3 (1.0E-05 M) it was 92 % of control; on EIF2AK3 (1.0E-06 M), 93 % of control; at MARK2 (1.0E-05 M) it was 99 % of control; on MARK2 (1.0E-06 M), 107 % of control. The Residual activity is recorded as 106 % of control at BUB1B (1.0E-05 M); 104 % of control on BUB1B (1.0E-06 M); 93 % of control at TYK2 (1.0E-05 M); 102 % of control at TYK2 (1.0E-06 M); 93 % of control at HIPK1 (1.0E-05 M); 90 % of control on HIPK1 (1.0E-06 M). Besides, the Residual activity on p38alpha (1.0E-05 M) is 4 % of control; on p38alpha (1.0E-06 M) it was 17 % of control; on ERK7 (1.0E-05 M) it was 98 % of control; at ERK7 (1.0E-06 M) it was 99 % of control; on HIPK2 (1.0E-05 M), 95 % of control; on HIPK2 (1.0E-06 M), 90 % of control. Besides, at p38alpha (1 µM, read-out: inhibition of p38α), the inhibition at 1 µM is ≥ 50%. In addition, the inhibition at 10 µM on p38alpha (10 µM, read-out: inhibition of p38α) is ≥ 50%.

In the case of `O=C(Cc1ccccc1)Nc1ccc(F)c(Nc2ccc3c(c2)CCCCC3=O)c1` [Compound 100], the Residual activity is reported as 90 % of control on CAMK2D (1.0E-05 M); 103 % of control at CAMK2D (1.0E-06 M); 102 % of control at EIF2AK3 (1.0E-05 M); 94 % of control on EIF2AK3 (1.0E-06 M); 104 % of control at MARK2 (1.0E-05 M); 103 % of control at MARK2 (1.0E-06 M). The Residual activity was 96 % of control on BUB1B (1.0E-05 M); 108 % of control at BUB1B (1.0E-06 M); 83 % of control at TYK2 (1.0E-05 M); 95 % of control at TYK2 (1.0E-06 M); 91 % of control on HIPK1 (1.0E-05 M); 100 % of control at HIPK1 (1.0E-06 M). Also, the Residual activity on p38alpha (1.0E-05 M) is reported as 73 % of control; on p38alpha (1.0E-06 M), 78 % of control; on ERK7 (1.0E-05 M), 85 % of control; on ERK7 (1.0E-06 M), 96 % of control; at HIPK2 (1.0E-05 M) it was 101 % of control; on HIPK2 (1.0E-06 M) it was 97 % of control.
